# Reference: paper PMC9957399, “New Insights into the Inhibition of Hesperetin on Polyphenol Oxidase: Inhibitory Kinetics, Binding Characteristics, Conformational Change and Computational Simulation” (Foods, 2023)
# Marks after values point to notes of the source that are not given here.
# Key:
# PPO [1] = tested on: T1, PPO; assay: Fluorometric titration (fluorescence quenching of PPO); assay type: binding, mushroom
# T1 construct: purchased Worthington Biochemical Co. (Lakewood, CO, USA)
# Description: Fluorescence spectra were measured at 298, 304 and 310 K by a fluorophotometer (F–7000, Hitachi, Tokyo, Japan). Briefly, the concentration of PPO was 2.0 μM, and the same volume of hesperetin was added into the PPO solution (2.0 mL) 10 times (0→25.0 μM). After each addition of hesperetin, 3 min was timed to equilibrate the mixed system. Then, the emission spectra (290–500 nm) were scanned at fixed excitation wavelength (280 nm).
# To deduct the effect of internal filtration, all measured fluorescence data were processed through Formula (5):(5) FC=FMe^(A1+A2)/2 where FC and FM represent the corrected and detected fluorescence, respectively. A1 and A2 stand for the absorbance values of hesperetin at excitation and emission wavelengths, respectively.
# The Stern–Volmer curves for PPO fluorescence quenched by hesperetin at each temperature were obtained through Equation (6):(6) F0/F=1+Kqτ0[Q]=1+Ksv[Q] where F and F0 denote the fluorescence intensity of PPO with and without hesperetin, respectively. Ksv, Kq and [Q] represent the fluorescence quenching constant, quenching rate constant and the concentration of hesperetin, respectively. τ0 represents the average fluorophore lifetime without hesperetin, and its value is usually equal to 10^−8 s.
# Based on the following equation, the information about the interaction between hesperetin and PPO were obtained, including binding constant (Ka) and binding number (n):(7) logF0−F/F=nlogKa−nlog1/[Qt]−(F0−F)[Pt]/F0 where [Qt] and [Pt] stand for the concentrations of hesperetin and PPO. […] The n values at 298, 304 and 310 K were all equal to 1, implying that only one site existed when hesperetin interacted with PPO.
# The values of ΔH°, ΔS° and ΔG°, which refer to enthalpy change, entropy change and free energy change, respectively, were obtained by the van ’t Hoff equations [42]:(8) logKa=−ΔH°/2.303RT+ΔS°/2.303R (9) ΔG°=ΔH°−TΔS° where T represents temperature; R represents gas constant, and its value is 8.314 J mol^−1 K^−1.
# PPO (monophenolase) = PPO (monophenolase) (Agaricus bisporus, UniProt C7FF04); assay: PPO activity assay, monophenolase (L-tyrosine oxidation); assay type: biochemical, mushroom
# Chain of PPO (monophenolase) (C7FF04 1-392): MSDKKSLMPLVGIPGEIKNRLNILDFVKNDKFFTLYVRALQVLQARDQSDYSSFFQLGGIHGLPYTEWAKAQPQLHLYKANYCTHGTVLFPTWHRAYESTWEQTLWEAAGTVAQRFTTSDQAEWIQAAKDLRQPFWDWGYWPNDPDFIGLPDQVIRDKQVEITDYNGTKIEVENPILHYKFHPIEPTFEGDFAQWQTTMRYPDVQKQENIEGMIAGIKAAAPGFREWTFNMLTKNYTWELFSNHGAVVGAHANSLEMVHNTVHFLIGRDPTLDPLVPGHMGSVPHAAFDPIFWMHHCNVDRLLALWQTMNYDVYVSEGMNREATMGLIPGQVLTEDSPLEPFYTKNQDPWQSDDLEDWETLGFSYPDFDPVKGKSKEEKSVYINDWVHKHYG
# Chain of PPO (monophenolase) (G1K3P4 1-150 partner): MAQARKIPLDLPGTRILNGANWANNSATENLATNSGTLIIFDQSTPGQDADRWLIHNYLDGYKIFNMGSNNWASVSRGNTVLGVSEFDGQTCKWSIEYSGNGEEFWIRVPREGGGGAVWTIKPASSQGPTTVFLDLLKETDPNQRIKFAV
# Description: To determine the monophenolase inhibitory activity of hesperetin, PPO (0.2 μΜ) was mixed with various concentrations of hesperetin (0, 25, 50, 100, 150, 200, 250 and 500 μM), and the mixtures were incubated at 30 °C. After 1 h, L-tyrosine (0.5 mΜ, substrate) was added to the mixtures, and the detection began.
# PPO [2] = target: PPO (Agaricus bisporus, UniProt C7FF04); assay: Kinetic analysis of inhibitory type (v vs [PPO], Lineweaver–Burk plots, L-dopa); assay type: biochemical, mushroom; details: for inhibitory type: Lineweaver–Burk plots, hesperetin 0, 300, 600, 1200 μM
# Chain of PPO (Agaricus bisporus, UniProt C7FF04) (C7FF04 1-392): as the sequence (C7FF04 1-392) above
# Chain of PPO (Agaricus bisporus, UniProt C7FF04) (G1K3P4 entry or part of it, further chain): as the sequence (G1K3P4 1-150 partner) above
# Excerpt: The inhibitory type of hesperetin against PPO could be evaluated using Lineweaver–Burk plots, and the mixed inhibition was described through Equation (1):(1) 1/v=Km/Vmax(1+[I]/Ki)1/[S]+1/Vmax(1+[I]/αKi) where v and Vmax represent enzyme reaction velocity and its maximum value, respectively. [I], [S] and Km are the concentrations of hesperetin and L-dopa, and the Michaelis–Menten constant, respectively. α denotes the apparent coefficient and Ki represents dissociation constant of hesperetin binding with free PPO, which can be calculated using the secondary Equations (2) and (3). (2) Slope=Km/Vmax+Km[I]/VmaxKi (3) Y-intercept=1/Vmaxapp=1/Vmax+1/αVmaxKi[I]
# At different concentrations of hesperetin, the effect on the enzymatic reaction rate (ΔOD/min) by increasing the concentrations of PPO were shown in Figure 1E. […] As the concentration of hesperetin increased, the slopes of the lines declined.
# Four lines intersected in the second quadrant. Either the slopes or the Y-intercept of four lines augmented with the rising concentrations of hesperetin, which represented the values of Km increased in a concentration-dependent manner while that of Vmax decreased. […] The inhibition mechanism of hesperetin against PPO deserved further exploration. […] Thus, hesperetin may have a better chance to bind with free PPO instead of PPO–hesperetin complex.
# PPO [3] = tested on: PPO; parameters: method as in PMID 22093614; details: cited from earlier work
# monophenolase = target: monophenolase; parameters: method as in PMID 28873682; details: previous study; read-out: IC50 on the inhibition of monophenolase activity; cited from earlier work
compound,measurement,setting,value
"COc1ccc([C@@H]2CC(=O)c3c(O)cc(O)cc3O2)cc1O [hesperetin, Hesperetin]",Kq (quenching rate constant),"PPO [1]; 298, 304 and 310 K, τ0 = 10^−8 s, compared with maximum diffusion collision quenching constant",> 2e+10 M⁻¹ s⁻¹
same,Ka,PPO [1]; 298 K,19800 L/mol
same,Ka (binding constant),PPO [1]; 298 K,1.98 ± 0.01 ^a ×10^4 L mol^−1
same,Ksv,PPO [1]; 298 K,(1.71 ± 0.01) × 10^4 L mol^−1
same,Ksv (quenching constant),PPO [1]; 298 K,1.71 ± 0.01 ^a ×10^4 L mol^−1
same,n (number of binding sites),PPO [1]; 298 K,1.23 ± 0.03
same,Ka,PPO [1]; 304 K,20500 L/mol
same,Ka (binding constant),PPO [1]; 304 K,2.05 ± 0.02 ^b ×10^4 L mol^−1
same,Ksv,PPO [1]; 304 K,(1.76 ± 0.02) × 10^4 L mol^−1
same,Ksv (quenching constant),PPO [1]; 304 K,1.76 ± 0.02 ^b ×10^4 L mol^−1
same,n (number of binding sites),PPO [1]; 304 K,1.08 ± 0.01
same,Ka,PPO [1]; 310 K,22200 L/mol
same,Ka (binding constant),PPO [1]; 310 K,2.22 ± 0.05 ^c ×10^4 L mol^−1
same,Ksv,PPO [1]; 310 K,(2.09 ± 0.02) × 10^4 L mol^−1
same,Ksv (quenching constant),PPO [1]; 310 K,2.09 ± 0.02 ^c ×10^4 L mol^−1
same,n (number of binding sites),PPO [1]; 310 K,0.99 ± 0.04
same,n values,"PPO [1]; at 298, 304 and 310 K",1
same,lag time of L-tyrosine oxidation,"PPO (monophenolase); hesperetin at 500.0 μM, extended from 1.08 min without inhibitor",10.33 min
same,remaining activity at 100 µM,PPO (monophenolase); read-out: residual activity of PPO (monophenolase),41.2%
same,α (apparent coefficient),"PPO [2]; L-dopa substrate, mixed inhibition model",2.93
same,inhibitory type,PPO [2],mixed-type inhibitor
same,inhibitory type,PPO [2]; listed as Hesperetin,mixed inhibitor
same,reversibility of inhibition,"PPO [2]; plots of v versus [PPO], L-dopa 0.5 mM",reversibly inhibited
same,inhibitory type (previous study),PPO [3],competitive PPO inhibitor
O=c1c(O)c(-c2ccc(O)c(O)c2)oc2cc(O)cc(O)c12 [quercetin],IC50,monophenolase,19.4 ± 0.35 µM
